# Legend:
# [1] = system: M2-10B4 marrow stromal cells; assay: Matrix mineralization (45Ca incorporation assay, von Kossa staining); type: cell-based, mouse; conditions: M2 cells in osteogenic medium, 10-14 days
# Procedure: (§1) Von Kossa and oil red O staining—Matrix mineralization in cell monolayers was detected by silver nitrate staining as previously described. Oil red O staining for detection of adipocytes was performed as previously described.
# ^45Ca incorporation assay—Matrix mineralization in cell monolayers was quantified using the ^45Ca incorporation assay as previously described.
# After 14 days, mineralization was identified by a von Kossa staining, which appears black. FIG. 3C is a depiction of von Kossa staining of M2 cells exposed to various conditions. […]
# [2] = system: M2-10B4 marrow stromal cells; assay: Colorimetric alkaline phosphatase (ALP) activity assay on whole cell extracts
# Procedure: Alkaline phosphatase activity assay: Colorimetric alkaline phosphatase (ALP) activity assay on whole cell extracts was performed as previously described.
# Test 1: M2 cells at confluence were treated with control vehicle (C), or 10 µM oxysterols, in an osteogenic medium consisting of RPMI 1640 to which 10% fetal bovine serum (FBS), 50 µg/ml ascorbate and 3 mM beta-glycerophosphate (□GP) were added. After 3 days of incubation, alkaline phosphatase (ALP) activity was determined in cell homogenates by a colorimetric assay.
# M2 cells at confluence were treated in osteogenic medium with control vehicle (C) or a combination of 22R and 20S oxysterols, at the indicated concentrations. ALP activity was measured after 3 days as described above.
# Test 2: M2 cells were grown in RPMI medium containing 10% fetal bovine serum (FBS). At confluence, the cells were treated in RPMI containing 5% FBS plus ascorbate at 50 μg/ml and β-glycerophosphate at 3 mM to induce osteoblastic differentiation. Adipogenic differentiation was induced by treating the cells in growth medium plus 10˜M troglitazone. A vehicle (C) or oxysterol treatment was applied to cells in a variety of doses (in μM): 20S-Hydroxycholesterol, 25-Hydroxycholesterol, 22R-Hydroxycholesterol; 22S-Hydroxycholesterol; 7-ketocholesterol. Cells were always treated at 90% confluence. After 4 days, alkaline phosphatase activity was determined in whole cell lysates and normalized to protein. Alternatively, MSC cultures were prepared and treated with oxysterols as described above. Cells were treated at 90% confluence with the combination of 22R-Hydroxycholesterol and 20S-Hydroxycholesterol, each at 5 μM, for 4 to 96 hours. The oxysterols where removed and fresh media without oxysterols was added for a total duration of 96 hours. Alkaline phosphatase activity was measured in whole cell extracts and normalized to protein.
# Cells were treated with the oxysterols (5 μM) for 4 days after which they were collected and analyzed by colorimetric assay for alkaline phosphatase activity. Results from a representative experiment are shown as the average of quadruplicate determination ±SD.
# osteocalcin mRNA = assay: Northern blotting for osteocalcin mRNA in M2 cells; type: cell-based, mouse; conditions: M2 cells in osteogenic medium, up to 14 days
# Procedure: RNA isolation and Northern blot analysis—Following treatment of cells under appropriate experimental conditions, total RNA was isolated using the RNA isolation kit from Stratagene (La Jolla, Calif., U.S.A.). Total RNA ([…]) was run on a 1% agarose/formaldehyde gel and transferred to Duralon-UV membranes (Strategene, Calif., U.S.A.) and cross-linked with UV light. The membranes were hybridized overnight at 60 degree C. with ^32P-labeled mouse osteocalcin cDNA probe, mouse lipoprotein lipase (LPL), mouse adipocyte protein 2 (aP2) PCR-generated probes, human 28S or 18S rRNA probes obtained from Geneka Biotechnology (Montreal, Quebec, Canada) and Maxim Biotech (San Francisco, Calif., U.S.A.), respectively. The PCR products were generated using primer sets synthesized by Invitrogen (Carlsbad, Calif., U.S.A.) with the following specifications: mouse aP2 gene (accession no. M13261); sense (75-95) 5′-[…]-3′, antisense (362-383) 5′-[…]-3′, generating a PCR product of 309 base pairs. Mouse LPL (accession no. XM—134193); sense (1038-1058) 5′-[…]-3′, antisense (1816-1836) 5′-[…]-3′, generating a PCR product of 799 base pairs. […] Following hybridization, the blots were washed twice at room temperature with 2×SSC+0.1% SDS, and then twice at 60 degree C. with 0.5×SSC+0.1% SDS, and exposed to X-ray film. The extent of gene induction was determined by densitometry.
# After 4 and 8 days, total RNA from duplicate samples was isolated and analyzed for osteocalcin (Osc) and 28S rRNA expression by Northern blotting as described. FIG. 3E is a radiogram of Northern blotting for osteocalcin mRNA in M2 cells exposed to a control or combination of oxysterols for 4 or 8 days. FIG. 3F is a bar graph depicting the relative demsometric units of osteocalcin mRNA in M2 cells exposed to a control or combination of oxysterols for 4 or 8 days. Data from densitometric analysis of the Northern blot is shown in (F) as the average of duplicate samples, normalized to 28S rRNA.
# RNA Isolation and Northern Blot Analysis—Total RNA was isolated using the RNA isolation kit from Stratagene (La Jolla, Calif., USA). Northern blotting and analysis of osteocalcin mRNA and 18S rRNA expression was performed as previously described (23).
# M2 cells = assay: Troglitazone-induced adipogenesis, oil Red O staining and adipocyte count; type: cell-based, mouse; conditions: troglitazone 10 μM, oxysterols 10 μM, 8-10 days
# Procedure: as §1
# Test 1: M2 cells at 90% confluence were treated with vehicle (C), PPAR-γ activator, troglitazone 10 uM (Tro), alone or in combination with 10 μM oxysterols 20S-, 22R-, or 25S-hydroxycholesterol. After 8 days, adipocytes were identified by oil Red 0 staining and quantified by counting under a phase contrast microscope. FIG. 6A is a bar graph depicting the effect of oxysterols on reducing adipogenesis of MSC.
# Test 2: (A) M2 cells at confluence were treated in RPMI containing 10% FBS with control vehicle or 10 μM troglitazone (Tro) in the absence or presence of 10 μM 20S or 22S oxysterols. After 10 days, adipocytes were visualized by oil Red O staining and quantified by light microscopy, shown in (B). […] (C) M2 cells were treated at confluence with 10 μM Tro, alone or in combination with 10 μM 20S oxysterol. After 10 days, total RNA was isolated and analyzed for lipoprotein lipase (LPL), adipocyte P2 gene (aP2) or 18S rRNA expression by Northern blotting as described (Ref). Data from densitometric analysis of the Northern blot is shown in (D) as the average of duplicate samples, normalized to 18S rRNA.
# ERK1 and ERK2 = assay: Western blot for native and phosphorylated ERK in M2 cells; type: cell-based, mouse; conditions: 5 μM, 1, 4 or 8 hours
# Procedure: Western blot analysis—After treatments, cells were lysed in lysis buffer, protein concentrations determined using the Bio-Rad protein assay (Hercules, Calif. U.S.A.), and SDS-PAGE performed as previously described. Probing for native and phosphorylated ERKs was performed as previously reported.
# (A) M2 cells at confluence were pretreated for four hours with RPMI containing 1% FBS, followed by treatment with control vehicle or 5 μM 20S oxysterol for 1, 4, or 8 hours. Next total cell extracts were prepared and analyzed for levels of native or phosphorylated ERK (pERK) using specific antibodies as previously described. Data from a representative of four experiments are shown, each treatment shown in duplicate samples. (B) M2 cells at confluence were pretreated for 2 hours with control vehicle (C) or 20 μM PD98059 (PD) in osteogenic medium as previously described. Next, a combination of 22R and 20S oxysterols (RS, 5 μM each) were added to appropriate wells as indicated. After 10 days of incubation, matrix mineralization was quantified by the ^45Ca incorporation assay as previously described. […] (C) M2 cells at confluence were pretreated for 2 hours with 20 µM PD98059 (PD) in RPMI containing 5% FBS. […] After 10 days, adipocytes were visualized by oil Red O staining and quantified by light microscopy as previously described. […]
# [3] = system: lipoprotein lipase (LPL) and adipocyte P2 gene (aP2); assay: Northern blotting for adipogenic genes in M2 cells; type: cell-based, mouse; conditions: 10 μM Tro with 10 μM 20S, 10 days
# Procedure: RNA isolation and Northern blot analysis—Following treatment of cells under appropriate experimental conditions, total RNA was isolated using the RNA isolation kit from Stratagene (La Jolla, Calif., U.S.A.). Total RNA ([…]) was run on a 1% agarose/formaldehyde gel and transferred to Duralon-UV membranes (Strategene, Calif., U.S.A.) and cross-linked with UV light. The membranes were hybridized overnight at 60 degree C. with ^32P-labeled mouse osteocalcin cDNA probe, mouse lipoprotein lipase (LPL), mouse adipocyte protein 2 (aP2) PCR-generated probes, human 28S or 18S rRNA probes obtained from Geneka Biotechnology (Montreal, Quebec, Canada) and Maxim Biotech (San Francisco, Calif., U.S.A.), respectively. […] The extent of gene induction was determined by densitometry.
# Test 2: (A) M2 cells at confluence were treated in RPMI containing 10% FBS with control vehicle or 10 μM troglitazone (Tro) in the absence or presence of 10 μM 20S or 22S oxysterols. After 10 days, adipocytes were visualized by oil Red O staining and quantified by light microscopy, shown in (B). […] After 10 days, total RNA was isolated and analyzed for lipoprotein lipase (LPL), adipocyte P2 gene (aP2) or 18S rRNA expression by Northern blotting as described (Ref). […]
compound,measurement,setting,value
CC(C)CCC[C@](C)(O)[C@H]1CC[C@H]2[C@@H]3CC=C4C[C@@H](O)CC[C@]4(C)[C@H]3CC[C@@]21C [20S-hydroxycholesterol],mineralization,[1],unable to induce
same,alkaline phosphatase activity (induction),"[2]; M2 cells in osteogenic medium, oxysterols 0.5-10 μM, 3-4 days",induced alkaline phosphatase activity
same,alkaline phosphatase activity,"[2]; M2 cells, ligands used at 10 μM, control 18±2, ±SD",140±12 activity units/mg protein
same,osteocalcin gene expression,osteocalcin mRNA,unable to induce
same,inhibition of adipogenesis,M2 cells,inhibited adipogenesis
same,activation of ERK1 and ERK2,ERK1 and ERK2,sustained activation
same,expression of the adipogenic genes LPL and aP2,[3],inhibition of the expression

# — patent publication US20090202660A1, “Agents and Methods for Osteogenic Oxysterols Inhibition of Oxidative Stress on Osteogenic Cellular Differentiation” (The Regents of the University of California, priority 2005, published 2009)
